pIC50: −log10 of the molar value.
What was measured:
[1] = molecular target: Transient receptor potential cation channel subfamily V member 1 (Rattus norvegicus, UniProt O35433); assay: Antagonist activity at rat TRPV1 expressed in human HEK293 cells assessed as inhibition of capsaicin-induced influx by measuring intracellular calcium accumulation by fura-2 dye based fluorimetric assay; type: cell-based
[2] = Drug uptake in iv dosed Sprague-Dawley rat brain striatum assessed as high radioactivity in striatum and measured upto 60 mins by PET imaging analysis; type: ADME, organism-based; conditions: in vivo, 1 h
[3] = Drug uptake in iv dosed Sprague-Dawley rat brain thalamus assessed as high radioactivity and measured upto 60 mins by PET imaging analysis; type: ADME, organism-based; conditions: in vivo, 1 h
[4] = Drug uptake in iv dosed Sprague-Dawley rat brain hypothalamus assessed as high radioactivity in hypothalamus and measured upto 60 mins by PET imaging analysis; type: ADME, organism-based; conditions: in vivo, 1 h
[5] = Drug uptake in iv dosed Sprague-Dawley rat brain medulla oblongata assessed as high radioactivity in medulla oblongata and measured upto 60 mins by PET imaging analysis; type: ADME, organism-based; conditions: in vivo, 1 h
[6] = Drug uptake in iv dosed Sprague-Dawley rat brain assessed as high radioactivity in brain cortical area and measured upto 60 mins by PET imaging analysis; type: ADME, organism-based; conditions: in vivo, 1 h
[7] = Drug uptake in iv dosed Sprague-Dawley rat brain cerebellum assessed as high radioactivity in brain cerebellum and measured upto 60 mins by PET imaging analysis; type: ADME, organism-based; conditions: in vivo, 1 h
[8] = Drug uptake in iv dosed Sprague-Dawley rat liver assessed as high radioactivity in liver and measured upto 60 mins by PET imaging analysis; type: ADME, organism-based; conditions: in vivo, 1 h
[9] = Drug uptake in iv dosed Sprague-Dawley rat gastrointestinal tract assessed as high radioactivity in gastrointestinal tract and measured upto 60 mins by PET imaging analysis; type: ADME, organism-based; conditions: in vivo, 1 h
[10] = Drug uptake in iv dosed Sprague-Dawley rat urinary bladder assessed as high radioactivity in urinary bladder and measured upto 60 mins by PET imaging analysis; type: ADME, organism-based; conditions: in vivo, 1 h
[11] = Drug uptake in iv dosed Sprague-Dawley rat skin assessed as high radioactivity in body surface and measured upto 60 mins by PET imaging analysis; type: ADME, organism-based, Skin of body; conditions: in vivo, 1 h

Transient receptor potential cation channel subfamily V member 1, sequence (O35433 whole entry): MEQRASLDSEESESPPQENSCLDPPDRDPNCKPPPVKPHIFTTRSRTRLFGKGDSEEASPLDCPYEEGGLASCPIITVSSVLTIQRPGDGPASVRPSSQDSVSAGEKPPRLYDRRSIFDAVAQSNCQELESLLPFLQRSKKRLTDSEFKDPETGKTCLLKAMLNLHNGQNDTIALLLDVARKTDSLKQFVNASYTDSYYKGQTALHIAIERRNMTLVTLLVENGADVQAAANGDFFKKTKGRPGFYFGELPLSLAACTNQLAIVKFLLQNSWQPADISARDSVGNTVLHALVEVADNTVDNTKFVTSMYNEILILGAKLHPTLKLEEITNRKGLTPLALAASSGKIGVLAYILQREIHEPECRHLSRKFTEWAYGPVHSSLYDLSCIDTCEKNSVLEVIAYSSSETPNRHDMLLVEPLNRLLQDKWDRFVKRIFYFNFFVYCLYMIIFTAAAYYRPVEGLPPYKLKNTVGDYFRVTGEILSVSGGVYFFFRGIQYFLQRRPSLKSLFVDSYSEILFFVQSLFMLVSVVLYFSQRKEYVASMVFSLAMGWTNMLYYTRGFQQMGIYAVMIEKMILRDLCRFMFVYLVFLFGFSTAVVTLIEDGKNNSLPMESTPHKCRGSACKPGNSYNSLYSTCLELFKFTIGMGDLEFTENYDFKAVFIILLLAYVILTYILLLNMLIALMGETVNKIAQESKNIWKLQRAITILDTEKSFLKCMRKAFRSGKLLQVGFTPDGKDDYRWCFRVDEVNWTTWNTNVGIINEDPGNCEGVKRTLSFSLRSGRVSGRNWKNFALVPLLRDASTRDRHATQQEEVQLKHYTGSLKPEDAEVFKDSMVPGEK

pIC50 [1]	Drug uptake [2]	Drug uptake [3]	Drug uptake [4]	Drug uptake [5]	Drug uptake [6]	Compound	other results
5.43	–	–	–	–	–	COc1cccc(NC(=O)/C=C/c2ccc(Cl)cc2)c1	–
5.96	–	–	–	–	–	CN(C(=O)/C=C/c1ccc(Cl)cc1)c1cccc(OCCCF)c1	–
5.38	–	–	–	–	–	CN(C(=O)/C=C/c1ccc(Cl)cc1)c1cccc(OCCF)c1	–
5.89	–	–	–	–	–	COc1cccc(N(C)C(=O)/C=C/c2ccc(Cl)cc2)c1	–
–	Active	Active	Active	Active	Active	CN(C(=O)/C=C/c1ccc(Cl)cc1)c1cccc(OCCC[18F])c1	–
–	Active	Active	Active	Active	Active	CN(C(=O)/C=C/c1ccc(Cl)cc1)c1cccc(O[11CH3])c1	Drug uptake [7]: Active; Drug uptake [8]: Active; Drug uptake [9]: Active; Drug uptake [10]: Active; Drug uptake [11]: Active

Source: ChEMBL document CHEMBL5108088, “N-Methylamide-structured SB366791 derivatives with high TRPV1 antagonistic activity: toward PET radiotracers to visualize TRPV1” (RSC Med Chem, 2022)
